Tests used:
Assay in all cases: relative viability (nuclei count vs DMSO), 5 days (fraction); higher = more cells survive
Avagacestat + Bortezomib = compound: NC(=O)[C@@H](CCC(F)(F)F)N(Cc1ccc(-c2ncon2)cc1F)S(=O)(=O)c1ccc(Cl)cc1 [Avagacestat] + CC(C)C[C@H](NC(=O)[C@H](Cc1ccccc1)NC(=O)c1cnccn1)B(O)O [Bortezomib] (partner 0.002 µM)
Method in brief: (§1)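 Lung cancer cell lines were pin-tool dosed in 1536-well plates on the day after seeding, with either a lone drug or a fixed anchor-drug dose plus five library-drug doses (not always all listed) in √10 steps. Nuclei were counted on 4× images after 5 days. Relative viability is the ratio of treated-well to vehicle-well nuclei counts, with each value a median of duplicate plates.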

Avagacestat + Lapatinib = compound: NC(=O)[C@@H](CCC(F)(F)F)N(Cc1ccc(-c2ncon2)cc1F)S(=O)(=O)c1ccc(Cl)cc1 [Avagacestat] + CS(=O)(=O)CCNCc1ccc(-c2ccc3ncnc(Nc4ccc(OCc5cccc(F)c5)c(Cl)c4)c3c2)o1 [Lapatinib] (partner 2 µM)
Method in brief: as §1

Avagacestat + AZD7762 = compound: NC(=O)[C@@H](CCC(F)(F)F)N(Cc1ccc(-c2ncon2)cc1F)S(=O)(=O)c1ccc(Cl)cc1 [Avagacestat] + NC(=O)Nc1cc(-c2cccc(F)c2)sc1C(=O)N[C@H]1CCCNC1 [AZD7762] (partner 0.2 µM)
Method in brief: as §1

Avagacestat + Decitabine = compound: NC(=O)[C@@H](CCC(F)(F)F)N(Cc1ccc(-c2ncon2)cc1F)S(=O)(=O)c1ccc(Cl)cc1 [Avagacestat] + Nc1ncn([C@H]2C[C@H](O)[C@@H](CO)O2)c(=O)n1 [Decitabine] (partner 2 µM)
Method in brief: as §1

| Cell Line | relative viability (Avagacestat + Bortezomib; first compound 0.08 µM) | relative viability (Avagacestat + Bortezomib; first compound 0.253 µM) | relative viability (Avagacestat + Bortezomib; first compound 0.8 µM) | relative viability (Avagacestat + Bortezomib; first compound 2.53 µM) | relative viability (Avagacestat + Bortezomib; first compound 8 µM) | relative viability (Avagacestat + Lapatinib; first compound 0.08 µM) | relative viability (Avagacestat + Lapatinib; first compound 0.253 µM) | relative viability (Avagacestat + Lapatinib; first compound 0.8 µM) | relative viability (Avagacestat + Lapatinib; first compound 2.53 µM) | relative viability (Avagacestat + Lapatinib; first compound 8 µM) | relative viability (Avagacestat + AZD7762; first compound 0.08 µM) | relative viability (Avagacestat + AZD7762; first compound 0.253 µM) | relative viability (Avagacestat + AZD7762; first compound 0.8 µM) | relative viability (Avagacestat + AZD7762; first compound 2.53 µM) | relative viability (Avagacestat + AZD7762; first compound 8 µM) | relative viability (Avagacestat + Decitabine; first compound 0.08 µM) | relative viability (Avagacestat + Decitabine; first compound 0.253 µM) | relative viability (Avagacestat + Decitabine; first compound 0.8 µM) | relative viability (Avagacestat + Decitabine; first compound 2.53 µM) | relative viability (Avagacestat + Decitabine; first compound 8 µM) |
| --- | --- | --- | --- | --- | --- | --- | --- | --- | --- | --- | --- | --- | --- | --- | --- | --- | --- | --- | --- | --- |
| NCI-H1666 | 0.942 | 0.78 | 0.861 | 0.83 | 0.842 | 0.858 | 0.877 | 0.756 | 0.639 | 0.523 | 1 | 0.88 | 1 | 0.93 | 0.876 | 0.892 | 0.858 | 0.953 | 0.81 | 0.882 |
| NCI-H1734 | 1.26 | 1.01 | 1.01 | 1.01 | 0.945 | 1.52 | 1.26 | 1.11 | 1.07 | 1.07 | 0.612 | 0.65 | 0.641 | 0.5 | 0.592 | 0.608 | 0.499 | 0.482 | 0.482 | 0.491 |
| NCI-H1755 | 0.996 | 1.11 | 1.07 | 0.967 | 0.937 | 1.05 | 1.29 | 1.22 | 1.04 | 1.02 | 0.425 | 0.672 | 0.4 | 0.38 | 0.473 | 0.732 | 0.665 | 0.755 | 0.718 | 0.72 |
| NCI-H1792 | 1.6 | 1.06 | 1.37 | 0.832 | 0.766 | 1.26 | 0.681 | 1.76 | 0.915 | 0.758 | 0.726 | 0.942 | 0.706 | 0.65 | 0.345 | 0.722 | 0.561 | 0.618 | 0.487 | 0.426 |
| NCI-H1915 | 1.02 | 1.11 | 1.13 | 1 | 0.951 | 0.965 | 1.12 | 1.12 | 0.988 | 0.949 | 0.694 | 0.72 | 0.74 | 0.806 | 0.678 | 0.259 | 0.266 | 0.283 | 0.237 | 0.265 |

Reference: the supplement of paper PMC10307832
